Each structure is given as a SMILES string. Where two headings read alike, the source gives them in different places.

This is an account of results in patent publication US20160143913A1, “COMBINATION” (Novartis AG, priority 2009, published 2016).

Assay type in all cases: cell-based
Experiment [1] concerns Calu6. Briefly: Cell growth inhibition assay (Cell Titer Glo), Calu6. The conditions noted are these: Homo sapiens, Calu-6, 72 h; Calu6 lung; KRAS_Q61K; PIK3CA/PTEN WT; single agent, 3 days, mean ± std. The text has this:
(§1) Human breast tumor line, MDA-MB-175-VII, human colon tumor lines, Colo-205, DLD-1, HCT-8, HT-29, LS-1034, NCI-H508, RKO, SW1417, SW1463, SW480, SW837 and T84, and human lung tumor lines, A427, A549, Calu 3, Calu 6, HCC827, NCI-H1155, NCI-H1355, NCI-H1792, NCI-H23, NCI-H727, SW1573 and SW900 were from ATCC. Human breast tumor line EFM-19 was from German Collection of Microorganisms and Cell Cultures. Human lung tumor line COR-L23 was from European Collection of Cell Cultures (UK). Human colon tumor line KM12 and human lung tumor line Hop62 were from National Cancer Institute. MV522 was from University of California at San Diego. All lines were cultured in RPMI 1640 medium containing 10% fetal bovine serum (FBS).
(§2) All cells were cultured for a minimum of 72 hours prior to cell plating. […] ATP levels were determined by adding Cell Titer Glo® (Promega) according to the manufacturer's protocol. Briefly, Cell Titer Glo® was added each plate, incubated for 30 minutes then luminescent signal was read on the SpectraMax L plate reader with a 0.5 sec integration time.
(§3) Inhibition of cell growth was estimated after treatment with compound or combination of compounds for three days and comparing the signal to cells treated with vehicle (DMSO). Cell growth was calculated relative to vehicle (DMSO) treated control wells. […]

The subject of experiment [2] is SW900. Description: Cell growth inhibition assay (Cell Titer Glo), SW900. The conditions noted are these: Homo sapiens, 72 h; SW900 lung; KRAS_G12V; PIK3CA/PTEN WT; single agent, 3 days, mean ± std.
Source text: as §1, §2, §3
In general terms: ATP-based viability assays read luminescence as a measure of living cells.

For experiment [3], the system named is A427. Briefly: Cell growth inhibition assay (Cell Titer Glo), A427. The conditions noted are these: Homo sapiens, A-427, 72 h; A427 lung; KRAS_G12D; PIK3CA/PTEN WT; single agent, 3 days, mean ± std.
Source text: as §1, §2, §3

For experiment [4], the system named is human colon tumor lines. Briefly: Cell growth inhibition assay, colon lines.
Source text: as §1
All cells were cultured for a minimum of 72 hours prior to cell plating. Cells were assayed in a 96-well tissue culture plate (NUNC 136102) of RPMI medium containing 10% FBS for all cells at 1,000 cells per well. […] ATP levels were determined by adding Cell Titer Glo® (Promega) according to the manufacturer's protocol. Briefly, Cell Titer Glo® was added each plate, incubated for 30 minutes then luminescent signal was read on the SpectraMax L plate reader with a 0.5 sec integration time.
as §3
Combination effects on potency were evaluated using Combination Index (CI) which was calculated with the back-interpolated IC50 values and the mutually non-exclusive equation derived by Chou and Talalay (1): […]
The combination effects on the response scale were quantified by Excess Over Highest Single Agent (EOHSA) based on the concept of nonlinear blending as described in detail by Peterson and Novick (2007) and Peterson (2010) [(2;3) [Peterson and Novick, 2007; Peterson, 2010]. […]

The test system of experiment [5] is HCC827. Briefly: Cell growth inhibition assay (Cell Titer Glo), HCC827. The note with it: Homo sapiens, 72 h; HCC827 lung; KRAS/RAF WT; PIK3CA/PTEN WT; EGFR E746_A750 deletion mutation; single agent, 3 days, mean ± std.
Source text: as §1, §2, §3

The test system of experiment [6] is NCI-H1355. Briefly: Cell growth inhibition assay (Cell Titer Glo), NCI-H1355. The conditions noted are these: Homo sapiens, 72 h; NCI-H1355 lung; KRAS_G13C; PIK3CA/PTEN WT; single agent, 3 days, mean ± std.
Source text: as §1, §2, §3

Experiment [7] concerns CaLu3. Description: Cell growth inhibition assay (Cell Titer Glo), CaLu3. The conditions noted are these: Homo sapiens, Calu-3, 72 h; CaLu3 lung; KRAS/RAF WT; PIK3CA/PTEN WT; HER2+; single agent, 3 days, mean ± std.
Source text: as §1, §2, §3

In experiment [8] the test system is T84. Description: Cell growth inhibition assay (Cell Titer Glo), T84. The note with it: Homo sapiens, 72 h; T84 colon; KRAS_G13D; PrK3CA_E542K; single agent, 3 days, mean ± std.
Source text: as §1, §2, §3

Experiment [9] has as its system HOP62. Description: Cell growth inhibition assay (Cell Titer Glo), HOP62. The note with it: Homo sapiens, HOP-62, 72 h; HOP62 lung; KRAS_G12C; PIK3CA/PTEN WT; single agent, 3 days, mean ± std.
Source text: as §1, §2, §3

The subject of experiment [10] is SW1417. Description: Cell growth inhibition assay (Cell Titer Glo), SW1417. The conditions noted are these: Homo sapiens, 72 h; SW1417 colon; BRAF_V600E; PIK3CA/PTEN WT; single agent, 3 days, mean ± std.
Source text: as §1, §2, §3

Experiment [11] has as its system RKO. Description: Cell growth inhibition assay (Cell Titer Glo), RKO. The conditions noted are these: Homo sapiens, 72 h; RKO colon; BRAF_V600E; PIK3CA_H1047R; single agent, 3 days, mean ± std.
Source text: as §1, §2, §3

The test system of experiment [12] is SW480. Briefly: Cell growth inhibition assay (Cell Titer Glo), SW480. The conditions noted are these: Homo sapiens, 72 h; SW480 colon; PIK3CA/PTEN WT; single agent, 3 days, mean ± std.
Source text: as §1, §2, §3

Experiment [13] concerns COR-L23. Description: Cell growth inhibition assay (Cell Titer Glo), COR-L23. The note with it: Homo sapiens, 72 h; COR-L23 lung; KRAS_G12V; PIK3CA/PTEN WT; single agent, 3 days, mean ± std.
Source text: as §1, §2, §3

As to `Cn1ncc(Cl)c1-c1cc(C(=O)N[C@H](CN)Cc2cccc(F)c2)sc1Cl` [Compound B, N-{(1S)-2-amino-1-[(3-fluorophenyl)methyl]ethyl}-5-chloro-4-(4-chloro-1-methyl-1H-pyrazol-5-yl)-2-thiophenecarboxamide], the IC50 is 2150 ± 890 nM in experiment [1]; over 10000 nM in [2]; over 8000 nM in experiment [3]; 500 to 5000 nM in [4] (a subset of these colon cell lines (modest sensitivity), range over the lines, read-out: IC50 values, single agent); over 8000 nM in experiment [5]; 6680 ± 3490 nM in experiment [6]. Besides, the IC50 is over 8000 nM in experiment [7]; over 10000 nM in [8]; over 10000 nM in experiment [9]; over 10000 nM in experiment [10]; 1810 ± 674 nM in experiment [11]; over 10000 nM in experiment [12]. In addition, the IC50 in [13] came out at 5370 ± 3520 nM.

As to `CC(=O)Nc1cccc(-n2c(=O)n(C3CC3)c(=O)c3c(Nc4ccc(I)cc4F)n(C)c(=O)c(C)c32)c1` [Compound A, N-{3-[3-cyclopropyl-5-(2-fluoro-4-iodo-phenylamino)-6,8-dimethyl-2,4,7-trioxo-3,4,6,7-tetrahydro-2H-pyrido[4,3-d]pyrimidin-1-yl]phenyl}acetamide], the IC50 in experiment [1] is 4 ± 3 nM; in [2] it was 127 nM; in [3], 22 ± 3 nM; in [4] (LS-1034, Colo-205, SW1463, HT29, SW480 and SW1417, read-out: IC50, single agent), at most 37 nM; in experiment [4] (colon lines depicted in Table 1, range over the lines, read-out: IC50s, single agent), 1 to 632 nM; in experiment [5], over 1000 nM. Also, the IC50 in [6] was 52 ± 10 nM; in [7], 158 ± 19 nM; in experiment [8], 61 ± 31 nM; in [9], over 1000 nM; in [10] it was 3 ± 1 nM; in experiment [11], 18 ± 1 nM. Also, the results for the IC50 in experiment [12] and in [13] were 37 ± 15 nM and 329 ± 237 nM, respectively.
